Experimental data published in article PMC10252594 (Cancers, 2023).
Where two headings read alike, the source gives them in different places.

Experiments:
[1] = Toxicity during LAPC-4 xenograft protocol (signs, body weight, histopathology); type: in vivo, mice; details: 28 days
Source text: Tissue samples from xenograft experiments were fixed in neutral buffered 10% formalin and processed for routine paraffin embedding. Tissue sections (3 µm) were stained with hematoxylin and eosin (HE) and histologically observed by an independent pathologist. Digital images at 20× magnification of each slide were obtained using the slide scanner NanoZoomer 2.0-HT (Hamamatsu, Bridgewater, NJ, USA). Whole-section images were visualized using the software NDP View (Hamamatsu, Bridgewater, NJ, USA).

LNCaP = test system: LNCaP; set-up: method as in PMID 34681843; details: AR positive, three days, MTS; cited from earlier work
LAPC-4 = assay: PCa cell viability proliferation screening (MTS), LAPC-4; type: cell-based; details: Homo sapiens, LAPC4, 72 h, LAPC-4, AR positive, three days
Experimental: (§1) VCaP (4 × 10^4 cells/well) were seeded in 96-well plates in DMEM media supplemented with 10% fetal bovine serum (FBS), penicillin, streptomycin, and sodium pyruvate. 22Rv1 cells (2 × 10^3 cells/well) and LAPC-4 cells (6 × 10^3 cells/well) were seeded in 96-well plates in RPMI media supplemented with 10% FBS, penicillin, streptomycin, and sodium pyruvate. The cells were incubated at 37 °C in a 5% CO2 humidified atmosphere for 24 h before treatment with multiple concentrations of RM-581 dissolved in dimethyl sulfoxide (DMSO). The concentrations used were between 0.01 μM and 50 μM. Treatment lasted for 3 days for all the cell lines except VCaP cells, which were treated for 7 days due to slower proliferation rates. At the end of the assay, 20 μL of MTS (Cell Titer 96 Aqueous, Promega, Nepean, ON, Canada) were added to each well, and the mixture was incubated for 4 h at 37 °C. The plates were subsequently analyzed at 490 nm using a Tecan M-200 microplate reader (Männedorf, Switzerland).

LAPC-4 cells [2] = assay: LAPC-4 cell viability proliferation and combination index assays (MTS, 6 days); type: cell-based; details: Homo sapiens, LAPC4, 144 h, LAPC-4, six days of treatment; read-out: IC50, mean of three experiments (Figure 2A)
LAPC-4 cells [3] = assay: Total cholesterol in LAPC-4 cells (kit); type: cell-based, human; details: RM-581 2 μM or atorvastatin 10 μM; for Total cholesterol concentration in LAPC-4 cells: Table S2
Experimental: A cholesterol quantification kit provided by Sigma-Aldrich (Catalog Number MAK043) was used following the manufacturer’s instructions to determine the concentration of total cholesterol, free cholesterol, and cholesteryl ester in samples. The cholesterol contents were measured in samples from two different protocols. […] Secondly, in tumor, liver, and plasma obtained at the end of the LAPC-4 xenograft experiment (control group and the group treated with RM-581 at 10 mg/kg/PO).

VCaP = assay: PCa cell viability proliferation screening (MTS), VCaP; type: cell-based; details: Homo sapiens, 168 h, AR positive, seven days
Experimental: as §1

LAPC-4 xenografts = test system: LAPC-4 xenografts
Source text: The xenograft experiment was approved by the Université Laval Animal Care Committee (Comité de Protection des Animaux de l’Université Laval, Québec, QC, Canada) and carried out in an animal facility approved by the Canadian Council on Animal Care (CCAC). Homozygous male Balb/c athymic nude mice (~42 days old, weighing approximately 28 g) were obtained from Charles River Inc. (Saint-Constant, QC, Canada) and housed (4 to 5) in vinyl micro-isolated ventilated cages equipped with air lids. Cages were kept in laminar airflow hoods and maintained in pathogen-limiting conditions. The animals were housed under a controlled environment at 22 ± 3 °C with 50 ± 20% relative humidity and light set at 12 h/day (light on at 07:15) during the acclimatization and study periods. Sterile water and rodent food (Rodent Diet #T.2018.15, Harlan Teklad, Madison, WI, USA) were provided ad libitum.
After an acclimatization period of 5 days, the mice were inoculated into both flanks by subcutaneous (SC) injection of 4 × 10^6 LAPC-4 cells (Passage 14) in 0.1 mL of growth medium containing 50% Matrigel (BD Biosciences, Mississauga, ON, Canada) via a 2.5-cm long 22-gauge needle. Two weeks later, mice that developed tumors were randomized according to tumor volume, divided into […] groups (Gr-1 to Gr-8), and treated over a period of 28 days. A bilateral orchiectomy was performed under isoflurane-induced anesthesia for Gr-1 but not for Gr-2 to Gr-8. Both Gr-1 (CTX control (CTL), 9 mice, 16 tumors) and Gr-2 (intact CTL, 9 mice, 18 tumors) were treated with 0.1 mL of the vehicle alone (8% DMSO/92% propylene glycol (PG) administered by gavage (PO). Gr-3 (30 mg/kg/PO, 10 mice, 19 tumors) received 0.843 mg of RM-581. Gr-4 (10 mg/kg/PO, 10 mice, 20 tumors) received 0.281 mg of RM-581. Gr-5 (3 mg/kg/PO, 10 mice, 18 tumors) received 0.084 mg of RM-581. Gr-6 (60 mg/kg/SC, 9 mice, 18 tumors) received 1.686 mg of abiraterone. Gr-7 (60 mg/kg/PO, 9 mice, 17 tumors) received 1.686 mg of abiraterone acetate. Gr-8 (4 mg/kg/IP, 9 mice, 17 tumors) received 0.112 mg of docetaxel.
RM-581 and abiraterone acetate were administered six days a week PO; abiraterone was administered six days a week SC; and docetaxel was administered twice a week by intraperitoneal (IP) injection. RM-581 was first dissolved in DMSO, and thereafter we added PG to obtain the appropriate concentration in the vehicle fluid (8% DMSO/92% PG). Abiraterone acetate and abiraterone were dissolved in 0.3% hydroxypropyl cellulose in saline (0.9% NaCl), while docetaxel was first dissolved in DMSO, and thereafter we added phosphate-buffered saline (PBS) to obtain the proper concentration in the carrier fluid (0.5% DMSO/99.5% PBS). All solutions were prepared one day prior to the initiation of treatment and stored at 4 °C under constant agitation.
The mice were weighed at the start and end of the protocol. Tumor area (mm^2) was calculated twice a week using two perpendicular diameters (L and W), which were recorded using a caliper, and the formula L/2 × W/2 × π. The area measured on the first day of treatment was fixed at 100%. At the end of the studies and 3 h after the last treatment, the mice were terminally anesthetized, and their final body weights were measured. Tumors, liver, kidney, and total prostate were collected from mice during necropsy, while blood was collected by cardiac puncture. Tissues and plasma were immediately frozen at −80 °C until analysis.

For `C#C[C@]1(O)CC[C@H]2[C@@H]3CCc4cc(OC)c(N5CCN(C(=O)[C@@H]6CCCN6C(=O)c6ccc7ccccc7n6)CC5)cc4[C@H]3CC[C@@]21C` [RM-581], the “signs of toxicity during xenograft protocol” value ([1]; nude mice, 3, 10, 30 mg/kg PO) was “no signs of apparent toxicity”, the “body weight of treated vs untreated mice” value ([1]; nude mice) was “no significant difference” and the “histology of liver, kidney and prostate (HE)” value ([1]; nude mice) was “tissue morphology was not affected”. For the same compound, the IC50 (LNCaP) was 1200 nM, the IC50 (LAPC-4) was 560 nM and the IC50 (LAPC-4 cells [2]) was 430 ± 130 nM. The “Total cholesterol in LAPC-4 cells vs untreated cells” value (LAPC-4 cells [3]; 18, 36, or 72 h) was “did not show a significant difference”, the “Total cholesterol concentration in LAPC-4 cells” value (shortened to “Total cholesterol concentration”) (LAPC-4 cells [3]; 18 h) was 68 ± 3 and the “Total cholesterol concentration” value (LAPC-4 cells [3]; 36 h) was 69 ± 6. The “Total cholesterol concentration” value (LAPC-4 cells [3]; 72 h (first line, control 66 ± 2)) was 69 ± 4, the IC50 (VCaP) was 5780 nM and the “time to significant difference with intact (untreated) group” value (“time to significant difference” for short) (LAPC-4 xenografts; 3 mg/kg PO) was 14 days. For the same compound, the tumor growth (LAPC-4 xenografts; 3 mg/kg PO, 6 days per week) was “tumors returned to their original size after 22 days”, the “time to significant difference” value (LAPC-4 xenografts; 10 mg/kg PO) was 7 days and the “tumor size compared with 30 mg/kg group” value (LAPC-4 xenografts; 10 mg/kg PO, 6 days per week, day 28) was “identical at the end of the protocol”. For the same compound, the “time to significant difference” value (LAPC-4 xenografts; 30 mg/kg PO) was 7 days, the “reduction in the initial tumor size at end of protocol” value (LAPC-4 xenografts; 30 mg/kg PO, 6 days per week, day 28) was 88% and the “effective oral doses for tumor regression” value (LAPC-4 xenografts; LAPC-4 xenograft, PO) was 3 to 30 mg/kg.
